Source: US20260138958A1, “SUBSTITUTED N-PHENYLURACILS AND SALTS THEREOF, AND USE THEREOF AS HERBICIDAL ACTIVE SUBSTANCES” (Bayer Aktiengesellschaft, priority 2022, published 2026)

Legend:
Assay type in all cases: in vivo
[1] = system: crop plants; test: Post-emergence crop plant compatibility, summary statements over several crops; conditions: 5 g or less per hectare, ORYSA, ZEAMX, TRZAS
Experimental: (§1) Seeds of monocotyledonous and dicotyledonous weeds and crop plants were placed in sandy loam in plastic or wood-fibre pots, covered with soil and cultivated in a greenhouse under controlled growth conditions. 2 to 3 weeks after sowing, the test plants were treated at the one-leaf stage. The compounds of the invention, formulated in the form of wettable powders (WP) or as emulsion concentrates (EC), were then sprayed onto the green parts of the plants as aqueous suspension or emulsion with addition of 0.5% additive at a water application rate of 600 l/ha (converted). After the test plants had been kept in the greenhouse under optimum growth conditions for about 3 weeks, the activity of the preparations was rated visually in comparison to untreated controls. For example, 100% activity=the plants have died, 0% activity=like control plants.
The observed effects on selected crop plants are reported here in comparison to the untreated controls (values in %).

[2] = system: Veronica persica (VERPE); test: Post-emergence herbicidal action, greenhouse pot test; conditions: for pest or weed control at 5 g/ha / pest or weed control at 20 g/ha: Veronica persica, 504 h; for pest or weed control at 5 g/ha: read-out: Post-emergence effect at 5 g/ha against VERPE in %; for pest or weed control at 20 g/ha: read-out: Post-emergence effect at 20 g/ha against VERPE in %
How it was run: (§2)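 Post-em greenhouse pots, sandy loam; one-leaf stage (2–3 wk after sowing); WP/EC spray, aq. suspension/emulsion + 0.5% additive, 600 l/ha; optimum conditions ~3 wk; visual % activity vs untreated (100% = dead).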

[3] = system: Viola tricolor (VIOTR); test: as above; conditions: for pest or weed control at 20 g/ha: Viola tricolor, 504 h, read-out: Post-emergence effect at 20 g/ha against VIOTR in %
How it was run: as §2

[4] = system: Alopecurus myosuroides (ALOMY); test: as above; conditions: for pest or weed control at 20 g/ha: Alopecurus myosuroides, 504 h, read-out: Post-emergence effect at 20 g/ha against ALOMY in %
How it was run: as §2

[5] = system: Bassia scoparia (KCHSC); test: as above
How it was run: as §2

[6] = system: Echinochloa crus-galli (ECHCG); test: as above; conditions: for pest or weed control at 20 g/ha: Echinochloa crus-galli, 504 h, read-out: Post-emergence effect at 20 g/ha against ECHCG in %
How it was run: as §2

[7] = system: Amaranthus retroflexus (AMARE); test: as above; conditions: Amaranthus retroflexus, 504 h; for pest or weed control at 1.25 g/ha: read-out: Post-emergence effect at 1.25 g/ha against AMARE in %; for pest or weed control at 5 g/ha: read-out: Post-emergence effect at 5 g/ha against AMARE in %; for pest or weed control at 20 g/ha: read-out: Post-emergence effect at 20 g/ha against AMARE in %
How it was run: as §2

[8] = system: Digitaria sanguinalis (DIGSA); test: as above
How it was run: as §2

[9] = system: Setaria viridis (SETVI); test: as above; conditions: for pest or weed control at 5 g/ha / pest or weed control at 20 g/ha: Setaria viridis, 504 h; for pest or weed control at 5 g/ha: read-out: Post-emergence effect at 5 g/ha against SETVI in %; for pest or weed control at 20 g/ha: read-out: Post-emergence effect at 20 g/ha against SETVI in %
How it was run: as §2

[10] = system: Abutilon theophrasti (ABUTH); test: as above; conditions: for pest or weed control at 5 g/ha / pest or weed control at 20 g/ha: Abutilon theophrasti, 504 h; for pest or weed control at 5 g/ha: read-out: Post-emergence effect at 5 g/ha against ABUTH in %; for pest or weed control at 20 g/ha: read-out: Post-emergence effect at 20 g/ha against ABUTH in %
How it was run: as §2

[11] = system: Pharbitis purpurea (PHBPU); test: as above; conditions: for pest or weed control at 5 g/ha / pest or weed control at 20 g/ha: Ipomoea purpurea, 504 h; for pest or weed control at 5 g/ha: read-out: Post-emergence effect at 5 g/ha against PHBPU in %; for pest or weed control at 20 g/ha: read-out: Post-emergence effect at 20 g/ha against PHBPU in %
How it was run: as §2

[12] = system: Tripleurospermum inodorum (MATIN); test: as above; conditions: Tripleurospermum inodorum, 504 h, 20 g/ha, read-out: Post-emergence effect at 20 g/ha against MATIN in %
How it was run: as §2

[13] = system: Polygonum convolvulus (POLCO); test: as above; conditions: Fallopia convolvulus, 504 h; for pest or weed control at 5 g/ha: read-out: Post-emergence effect at 5 g/ha against POLCO in %; for pest or weed control at 20 g/ha: read-out: Post-emergence effect at 20 g/ha against POLCO in %
How it was run: as §2

[14] = system: harmful plants; test: Post-emergence herbicidal action, summary statements over several weeds; conditions: 20 g or less per hectare, ALOMY, ECHCG, AVEFA, VERPE
Experimental: as §1

[15] = system: Triticum aestivum (TRZAS); test: Post-emergence crop plant compatibility, greenhouse pot test; conditions: Triticum aestivum, in vivo
How it was run: (§3)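 Visual % damage scores were taken roughly 3 weeks after treatment, relative to untreated plants, where 100% means plants died and 0% means no difference. Plants received aqueous sprays (WP or EC, 0.5% additive, 600 l/ha) on green parts at the one-leaf stage, 2–3 weeks after sowing.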

[16] = system: Zea mays (ZEAMX); test: as above; conditions: Zea mays, in vivo
How it was run: as §3

Structure (SMILES) | compatibility with crop plants by comparison with a-27, a-29 or a generically encompassed structure (WO2002/098227) [1] | Post-emergence effect at 1.25 g/ha against VERPE in % [2] | pest or weed control at 5 g/ha [2] | pest or weed control at 20 g/ha [2] | Post-emergence effect at 1.25 g/ha against VIOTR in % [3] | Post-emergence effect at 5 g/ha against VIOTR in % [3] | pest or weed control at 20 g/ha [3] | pest or weed control at 20 g/ha [4] | Post-emergence effect at 1.25 g/ha against KCHSC in % [5] | Post-emergence effect at 5 g/ha against KCHSC in % [5] | Post-emergence effect at 20 g/ha against KCHSC in % [5] | Post-emergence effect at 1.25 g/ha against ECHCG in % [6] | Post-emergence effect at 5 g/ha against ECHCG in % [6] | pest or weed control at 20 g/ha [6] | pest or weed control at 1.25 g/ha [7] | pest or weed control at 5 g/ha [7] | pest or weed control at 20 g/ha [7] | Post-emergence effect at 5 g/ha against DIGSA in % [8] | Post-emergence effect at 20 g/ha against DIGSA in % [8] | Post-emergence effect at 1.25 g/ha against SETVI in % [9] | other results
Cn1c(C(F)(F)F)cc(=O)n(-c2cc(Oc3ccccc3OCC(=O)OCC3CCCCC3)c(Cl)cc2F)c1=O [I.7-14] | distinctly improved compatibility | 100% | 100% | 100% | 100% | 100% | 100% | 100% | 100% | 100% | 100% | 90% | 100% | 100% | 100% | 100% | 100% | 100% | 100% | 100% | VERPE (efficacy in %) ([2]; Table B4 comparison, application rate 1.25 g/ha): 100%; pest or weed control at 5 g/ha [9]: 100%; pest or weed control at 20 g/ha [9]: 100%; Post-emergence effect at 1.25 g/ha against ABUTH in % [10]: 100%; pest or weed control at 5 g/ha [10]: 100%; pest or weed control at 20 g/ha [10]: 100%; Post-emergence effect at 1.25 g/ha against PHBPU in % [11]: 100%; pest or weed control at 5 g/ha [11]: 100%; pest or weed control at 20 g/ha [11]: 100%; pest or weed control at 20 g/ha [12]: 90%; pest or weed control at 5 g/ha [13]: 100%; pest or weed control at 20 g/ha [13]: 100%; herbicidal efficacy by comparison with a-27, a-29 or a generically encompassed structure (WO2002/098227) [14]: distinctly improved herbicidal efficacy; Post-emergence effect at 1.25 g/ha against TRZAS in % [15]: 20%
Cn1c(C(F)(F)F)cc(=O)n(-c2cc(Oc3ccccc3OCC(=O)OCC3CCCCCC3)c(Cl)cc2F)c1=O [I.7-16] | distinctly improved compatibility | 80% | 100% | 100% | 100% | 100% | 100% | 100% | 100% | 100% | 100% | 100% | 100% | 100% | 100% | 100% | 100% | 100% | 100% | 100% | Post-emergence effect at 5 g/ha against ALOMY in % ([4]; 5 g/ha): 90%; ECHCG (efficacy in %) ([6]; Table B5 comparison, application rate 1.25 g/ha): 100%; Post-emergence effect at 1.25 g/ha against DIGSA in % ([8]; 1.25 g/ha): 90%; pest or weed control at 5 g/ha [9]: 100%; pest or weed control at 20 g/ha [9]: 100%; Post-emergence effect at 1.25 g/ha against ABUTH in % [10]: 80%; pest or weed control at 5 g/ha [10]: 100%; pest or weed control at 20 g/ha [10]: 100%; Post-emergence effect at 1.25 g/ha against PHBPU in % [11]: 80%; pest or weed control at 5 g/ha [11]: 100%; pest or weed control at 20 g/ha [11]: 100%; pest or weed control at 20 g/ha [12]: 90%; pest or weed control at 5 g/ha [13]: 100%; pest or weed control at 20 g/ha [13]: 100%; herbicidal efficacy by comparison with a-27, a-29 or a generically encompassed structure (WO2002/098227) [14]: distinctly improved herbicidal efficacy; Post-emergence effect at 1.25 g/ha against TRZAS in % [15]: 10%; Post-emergence effect at 20 g/ha against TRZAS in % [15]: 20%; Post-emergence effect at 1.25 g/ha against ZEAMX in % [16]: 20%
